Measured values taken from patent US10059708B2, “Therapeutic targeting of the interleukin 1 receptor-associated kinase 4 (IRAK4) in leukemias characterized by rearrangements in the mixed lineage leukemia gene (MLL-r)” (Northwestern University, priority 2016, dated 2018).
“Also recorded” adds a separate entry of the source.

Columns and labels:
MDS and T-ALL cells = details: subset of MDS and T-ALL cells with high expression of IRAK1; cited from earlier work
endogenous MLL protein = assay: MLL protein levels / stability in HEK293 cells (western blotting, cycloheximide chase); type: cell-based, human; design: dose or concentration left out as unconfirmed; details: for indicated times or different concentrations for 24 hr, relative to DMSO
MLL-AF9 leukemia = assay: Murine MLL-AF9 leukemia transplantation model; type: in vivo, C57BL/6 mice; details: treatment from day 10 after transplantation; IRAK1/4 inhibitor 8 mg/kg, IRAK4 inhibitor 75 mg/kg i.p. every other day; vehicle mice all dead by 31 days
Description: After transformation of MLL-AF9, c-Kit+ HSPCs were transplanted into lethally irradiated C57BL/6 mice with 1 3 106 transformed cells and 2 3 105 support cells. Leukemia cells from primary AML mice were isolated and transplanted into sublethally irradiated C57BL/6 mice. Drug treatments were started at day 10 or 19 after transplantation. (B) Kaplan-Meier survival curves of secondary transplanted C57BL/6 mice after vehicle and IRAK1/4 or IRAK4 inhibitor treatment at day 19 (blast phase). Vehicle or IRAK inhibitors were administered every other day by intraperitoneal injection for a total of five treatments. Leukemia was confirmed at the endpoint for each transplant mouse. […] The p values were calculated using the log rank test. […] The p values were calculated using the log rank test. […]
We further assessed the effects of the IRAK inhibitors in vivo using the murine MLL-AF9 leukemia transplantation model (FIG. 7A) (Volk et al., 2014). […]
Murine MLL-AF9 Leukemia Model. […] The mice were monitored for signs of acute leukemia for 2-3 months and euthanized when leukemia was evident (weight loss below 16.75 g, reduced mobility, malaise, palpable spleen, and hunched back). […]
Animal Treatment. […] Mice were monitored for leukemia development and leukemia was verified after the mice were sacrificed upon signs of illness (weight loss below 16.75 g, partial paralysis, malaise, palpable spleen, and hunched back).

MLL occupancy = assay: MLL ChIP-seq in HEK293 cells; type: cell-based, human
Description: (§1) FIG. 3. […] (D) Halo-MLL-Inter-transfected HEK293 cells were treated with […]/4 inhibitor for 24 hr, purified with HaloLink resin, and subjected to MudPIT analysis. […] Each row represents a peak of MLL occupancy (n=6,250), with rows ordered by decreasing MLL occupancy in the inhibitor-treated condition. […] Boxplots depict the read coverage for all MLL peaks. The p value was calculated with the Wilcoxon signed-rank test. See also FIG. 10.
FIG. 10. […] Occupancy in reads per million (rpm)±3 kb around the center of peak is shown (N=6250). Genes are ordered by MLL occupancy in the inhibitor treatment. […] The read counts of all the MLL peaks were plotted and the Wilcoxon signed-rank test was used to calculate the p value (F).
Chromatin Immunoprecipitation Sequencing. […] ChIP-seq reads were aligned to the mouse (UCSC mm9) or human genome (UCSC hg19). Alignments were processed with Bowtie version 1.1.2, allowing only uniquely mapping reads with up to two mismatches within the 50 bp read. The resulting reads were extended to 150 bases toward the interior of the sequenced fragment and normalized to total reads aligned (reads per million, rpm). […] The average coverage (calculated using rpm tracks described above) across the entire region is shown in the boxplots where p values were calculated with the Wilcoxon signed-rank test. […]

SEM and REH cells = assay: Total RNA-seq, SEM versus REH cells; type: cell-based, human; details: 2 days of treatment
Description: Total RNA Sequencing. […] Total RNA was extracted from Trizol according to the manufacturer's instructions. The RNA was treated with DNase I (NEB) and cleaned with the QIAGEN RNeasy mini kit. 500 ng RNA was used for library preparation with TruSeq Stranded Total RNA with Ribo-Zero Gold kit (Illumina, RS-123-2201). The sequenced reads were aligned to the human genome (UCSC hgl9) with TopHat 2.1.0 using gene annotations from Ensembl 72. Differential gene expression was performed with EdgeR (Empirical analysis of digital gene expression data in R) version 3.08 (Robinson et al., 2010). Adjusted p values were computed using the Benjamini-Hochburg method. […] P values for Venn diagrams were performed with the hypergeometric test.

MLL-UBE2O interaction = MLL-UBE2O interaction (HaloTag purification, MudPIT, co-immunoprecipitation); type: cell-based, human; design: dose or concentration left out as unconfirmed; details: Halo-MLL-Inter-transfected HEK293 cells
Description: as §1

REH cells = assay: REH cell proliferation (trypan blue, Vi-CELL XR); type: cell-based, human; details: IRAK1/4 inhibitor
Description: FIG. 4. […] Viable cells were seeded at 0.2 million/mL, and they were monitored by trypan blue exclusion staining and counted using a Vi-CELL XR cell counter. Data are represented as mean±SD (n=3). […] Data are represented as mean±SD (n=3). (C) Venn diagram of deregulated genes in SEM cells by IRAK1/4 and IRAK4 inhibitors. […] (D) Venn diagram of deregulated genes in SEM and REH cells by both inhibitors. Little overlap was observed between REH and SEM cells. […] Each cluster is represented by different colors and a circle node represents each enriched term. (G) UBE2O depletion and IRAK inhibition affect a common subset of genes in SEM cells. […] Heatmaps represent Z score-normalized values. See also FIG. 11.
Stabilization of MLL through IRAK Inhibition and UBE2O Depletion Regulates a Specific Gene Regulatory Network in MLL Leukemia. To measure the consequence of stabilizing MLL in MLL leukemia cells, we determined the effects of IRAK inhibition on cell proliferation of REH (MLL-germline leukemia) and SEM (MLL-AFF1) cells. Both of these cell lines are derived from precursor B cell ALL patient blast cells, and, therefore, they have been studied when comparing non-MLL (REH) and MLL-dependent (SEM) leukemia gene expression (Guenther et al., 2008).

wild-type MLL protein = assay: MLL stabilization assay (western blotting) with new compounds; type: cell-based; details: western blotting for MLL protein levels (FIG. 16A)
Description: (§2) FIG. 16. Development of novel compounds (NUCC0200618 and NUCC0200554) that stabilize the wild-type MLL protein and slow leukemic cell growth through IRAK4 inhibition. A) Western blotting for MLL protein levels in cells treated with the indicated compounds designed and synthesized at Northwestern. Protein stabilization is observed to increase by 6 hours of treatment. B) Luciferase-based IRAK4 kinase assays (Promega) with the indicated doses of the new compounds. C) Cell viability counts after 3 days of treatment with the indicated doses of the new compounds.
The newly synthesized compound NUCC0200554 (Compound 16 of Example 2) and compound NUCC0200618 (Compound 21 of Example 2) were further tested in MLL stabilization assay, in an IRAK4 kinase activity as described above, and in a SEM cell proliferation assay as follows. SEM (ACC-546) leukemia cells were maintained in Iscove's Modified Dulbecco's Medium (IMDM) with 10% FBS. Viable SEM cells were seeded at 0.2 million/ml, and treated with different concentrations of inhibitors at the indicated concentrations for three days. Viable cells were monitored by trypan blue exclusion staining and counted using a Vi-CELL XR cell counter. Data are represented as Mean±SD (n=3).

SEM cells = assay: RNA-seq gene expression profiles of SEM cells, new versus commercial IRAK inhibitors; type: cell-based, human; details: 3 days
Excerpt: FIG. 17. Comparison of novel IRAK4 inhibitors (NUCC numbers) with commercially available IRAK inhibitors (referred to here as IRAK1/4 and IRAK4) on gene expression in leukemia cells as determined by RNA-seq. SEM cells were maintained in IMDM medium with 10% FBS. […] SEM cells were harvested and used for total RNA-seq. A: PCA plot of each group with different treatments. […] B: Distance plot of each group with the indicated treatments.
The gene expression profiles of SEM cells treated with newly synthesized compound NUCC0200554 (Compound 16 of Example 2) and compound NUCC0200618 (Compound 21 of Example 2) as follows. After inhibitor treatment for 3 days, SEM cells were collected and lysed with Trizol reagent. Total RNA was extracted from Trizol according to the manufacturer's instructions. The RNA was treated with DNase I (NEB) and cleaned with the Qiagen RNeasy mini kit. 500 ng RNA was used for library preparation with TruSeq Stranded Total RNA with Ribo-Zero Gold kit (Illumina, RS-123-2201). The sequenced reads were aligned to the human genome (UCSC hgl9) with TopHat 2.1.0 using gene annotations from Ensembl 72. Differential gene expression was performed with Deseq2.

Human IRAK4 = molecular target: T1, Human IRAK4 (Homo sapiens, UniProt Q9NWZ3); assay: IRAK4 kinase inhibition assay (ADP-Glo); type: biochemical; details: for Inhibition of IRAK4 kinase activity: 100 uM of each inhibitor, 12.5 uM ATP, relative activity to DMSO (FIG. 15); for IRAK4 kinase inhibition: at increasing concentration (FIG. 16B)
T1 sequence (Q9NWZ3 1-460): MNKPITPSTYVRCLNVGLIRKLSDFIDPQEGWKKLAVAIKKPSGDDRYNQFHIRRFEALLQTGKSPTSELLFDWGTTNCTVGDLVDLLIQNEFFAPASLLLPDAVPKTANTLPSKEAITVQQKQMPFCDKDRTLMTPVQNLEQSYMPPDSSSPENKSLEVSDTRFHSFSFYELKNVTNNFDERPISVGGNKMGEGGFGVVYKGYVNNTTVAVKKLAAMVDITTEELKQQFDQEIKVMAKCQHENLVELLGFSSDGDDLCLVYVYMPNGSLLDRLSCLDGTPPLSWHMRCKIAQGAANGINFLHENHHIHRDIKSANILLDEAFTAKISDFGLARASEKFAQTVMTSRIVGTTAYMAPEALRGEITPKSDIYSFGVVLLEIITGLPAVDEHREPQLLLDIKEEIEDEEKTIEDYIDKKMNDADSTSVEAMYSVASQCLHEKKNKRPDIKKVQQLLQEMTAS
Description: FIG. 15. Inhibition of IRAK4 kinase activity by NU's IRAK4 kinase inhibitors. 10 ng IRAK4, 12.5 uM ATP and 500 ng MBP (substrate) were used in the IRAK4 kinase assay. 100 uM of each inhibitor were used individual in the assay and the reaction product ADP was detected by the ADP-GLO assay. Relative activity to DMSO is shown.
as §2
The newly synthesized compounds were tested in an IRAK4 kinase inhibition assay as follows. In a 10 μl reaction, 10 ng Human IRAK4, 12.5 μM ATP, 500 ng dephosphorylated MBP (EMD Millipore), and different IRAK inhibitors were used in 1× kinase buffer (60 mM HEPES-NaOH, pH 7.5, 3 mM MgCl2, 3 mM MnCl2, 1.2 mM DTT, 0.1% BSA) at room temperature for 45 minutes. The ADP formed from the kinase reaction was measured by the ADP-Glo™ Kinase Assay (Cat.#V9101) and the luminescence was measured with a Tecan Infinite M1000 plate reader.

Compound	effect of IRAK1/4 inhibitor alone (MDS and T-ALL cells)	sensitization to BCL2 inhibitor treatment (MDS and T-ALL cells)	MLL protein levels (MLL N320) (endogenous MLL protein)	MLL protein levels (MLL N320) (endogenous MLL protein; listed as IRAK1/4 inhibitor I)	mice that still did not develop MLL-AF9 leukemia as of day 55 (MLL-AF9 leukemia)	genome-wide MLL occupancy (MLL occupancy; HEK293 cells, 6,250 MLL peaks)	MLL occupancy at MLL target genes HOXA, HOXC, FOXC1 (MLL occupancy; HEK293 cells, 24 hr, D2M7U and NT86 antibodies)	genes downregulated in both REH and SEM cells (SEM and REH cells) [genes]	genes upregulated in both REH and SEM cells (SEM and REH cells) [genes]	MLL-UBE2O interaction (MLL-UBE2O interaction)	REH cell proliferation (REH cells)	MLL stabilization (wild-type MLL protein)	PCA plot grouping of RNA-seq profile (SEM cells; 10 uM)	Inhibition of IRAK4 kinase activity (Human IRAK4)	IRAK4 kinase inhibition (Human IRAK4)	PCA plot grouping of RNA-seq profile (SEM cells; 5 uM)
O=C(Nc1nc2ccccc2n1CCN1CCOCC1)c1cccc([N+](=O)[O-])c1 [IRAK1/4 inhibitor]	does not substantially impair these cells	sensitize a subset of MDS and T-ALL cells	stabilizes endogenous MLL protein; also recorded: stabilizes MLL protein from proteasomal degradation in a dose-dependent manner	increased levels of MLL protein in a time- and dose-dependent manner	eight of ten	significant increases in MLL occupancy; also recorded: MLL occupancy is significantly increased; also recorded: general increase in MLL occupancy	enhanced MLL occupancy; also recorded: increases MLL occupancy at HOXA and HOXC loci; also recorded: increased MLL occupancy	238	186	substantially decreased; also recorded: decreases MLL-UBE2O interaction	no effect	–	–	–	–	–
Nc1cccc(-c2cnc(NC(=O)c3cccc(Cl)c3)[nH]2)c1 [NUCC0200554, N-(5-(3-aminophenyl)-1H-imidazol-2-yl)-3-chlorobenzamide]	–	–	–	–	–	–	–	–	–	–	–	stabilize MLL	very similar profiles	inhibit IRAK4 kinase activity	inhibit IRAK4 kinase	–
O=C(Nc1ncc(-c2cccc(O)c2)[nH]1)c1ccccc1 [NUCC0200618, N-(5-(3-hydroxyphenyl)-1H-imidazol-2-yl)benzamide]	–	–	–	–	–	–	–	–	–	–	–	stabilize MLL	group together	inhibit IRAK4 kinase activity	inhibit IRAK4 kinase	very similar profiles
